Experimental findings from patent publication US9340555B2, “Compounds as tyrosine kinase modulators” (Allergan, Inc., priority 2009, dated 2016) are described below.

Each structure is given as a SMILES string.

Data set [1] deals with Rabbit Eye VEGF Permeability. Briefly: Rabbit Eye VEGF Permeability Model. It counts as in vivo. The text has this:
Rabbit Eye VEGF Permeability Model
Assay used was detailed by Jeffrey Edelman, etc in Exp. Eye. Res. 80 (2005), Pg 249-258.

The target in a further data set is VEGFR1 (Homo sapiens (Human), UniProt P17948). The data set can be described thus: Enzymic VEGFR1. It counts as biochemical.
For another data set, the target named is VEGFR2 (Homo sapiens (Human), UniProt P35968). The data set can be described thus: VEGF Stimulated Ca++ Signal In Vitro (Cellular VEGFR2, FLIPR). It is filed as cell-based. The following applies: HUVEC, VEGF stimulation (5 ng/mL), intracellular calcium. (A change in cytosolic calcium serves as a functional read-out for many receptors and channels.)
The target in data set [2] is human VEGF receptor (VEGFR-2) (Homo sapiens (Human), UniProt P35968). The data set can be described thus: VEGFR2 Kinase Assay (Enzymic VEGFR2). It counts as biochemical. The conditions noted are these: His-VEGFR-2 cytoplasmic domain, 3.6 µM ATP.
In another data set the target is PDGFRβ (Homo sapiens (Human), UniProt P09619). Briefly: Enzymic PDGFRβ. It is filed as biochemical.
Chain of PDGFRβ (P09619 33-1106, species assumed): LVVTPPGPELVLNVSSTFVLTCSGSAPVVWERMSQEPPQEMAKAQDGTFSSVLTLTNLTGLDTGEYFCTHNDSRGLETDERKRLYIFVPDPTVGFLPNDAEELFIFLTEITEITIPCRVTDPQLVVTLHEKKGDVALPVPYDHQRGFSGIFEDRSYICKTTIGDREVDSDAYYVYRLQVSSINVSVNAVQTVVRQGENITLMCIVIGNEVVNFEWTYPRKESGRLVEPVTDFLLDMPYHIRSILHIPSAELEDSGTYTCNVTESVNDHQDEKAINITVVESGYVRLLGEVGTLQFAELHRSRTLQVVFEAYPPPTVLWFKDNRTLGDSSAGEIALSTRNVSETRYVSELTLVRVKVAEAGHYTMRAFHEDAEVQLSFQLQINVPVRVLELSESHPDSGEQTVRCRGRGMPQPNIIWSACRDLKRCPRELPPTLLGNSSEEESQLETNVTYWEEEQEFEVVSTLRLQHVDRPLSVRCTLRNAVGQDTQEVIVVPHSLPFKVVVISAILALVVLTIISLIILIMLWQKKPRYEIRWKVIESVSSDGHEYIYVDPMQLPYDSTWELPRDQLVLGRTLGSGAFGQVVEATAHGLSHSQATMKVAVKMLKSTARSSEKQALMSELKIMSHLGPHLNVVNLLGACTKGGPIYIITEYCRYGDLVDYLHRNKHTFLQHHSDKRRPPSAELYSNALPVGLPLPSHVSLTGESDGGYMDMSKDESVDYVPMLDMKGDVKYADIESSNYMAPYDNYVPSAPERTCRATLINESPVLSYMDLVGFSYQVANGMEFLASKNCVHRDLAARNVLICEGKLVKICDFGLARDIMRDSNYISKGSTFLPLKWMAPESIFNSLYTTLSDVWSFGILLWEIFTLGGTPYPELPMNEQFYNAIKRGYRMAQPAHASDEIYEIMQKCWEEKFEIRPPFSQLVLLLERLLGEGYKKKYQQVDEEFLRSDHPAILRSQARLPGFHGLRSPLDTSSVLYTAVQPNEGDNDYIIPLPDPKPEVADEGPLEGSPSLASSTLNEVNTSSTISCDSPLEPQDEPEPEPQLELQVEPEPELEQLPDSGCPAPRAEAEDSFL

Chain of human VEGF receptor (VEGFR-2) (P35968 786-1356): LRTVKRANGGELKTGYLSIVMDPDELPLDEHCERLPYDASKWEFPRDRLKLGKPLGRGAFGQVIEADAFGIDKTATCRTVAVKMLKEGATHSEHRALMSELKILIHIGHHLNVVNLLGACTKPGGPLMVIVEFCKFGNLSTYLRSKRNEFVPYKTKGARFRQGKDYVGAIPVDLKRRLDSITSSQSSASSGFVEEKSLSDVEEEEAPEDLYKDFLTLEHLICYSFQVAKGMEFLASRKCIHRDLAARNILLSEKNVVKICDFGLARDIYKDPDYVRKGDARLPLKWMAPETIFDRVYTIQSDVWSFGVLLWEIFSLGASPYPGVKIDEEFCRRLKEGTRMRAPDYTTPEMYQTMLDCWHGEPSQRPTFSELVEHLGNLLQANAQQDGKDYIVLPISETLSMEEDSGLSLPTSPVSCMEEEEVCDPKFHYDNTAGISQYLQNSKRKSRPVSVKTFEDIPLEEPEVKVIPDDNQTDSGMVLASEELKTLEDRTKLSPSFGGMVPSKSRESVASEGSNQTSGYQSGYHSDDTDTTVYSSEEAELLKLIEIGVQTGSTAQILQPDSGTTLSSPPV
Chain of VEGFR2 (P35968 20-1356): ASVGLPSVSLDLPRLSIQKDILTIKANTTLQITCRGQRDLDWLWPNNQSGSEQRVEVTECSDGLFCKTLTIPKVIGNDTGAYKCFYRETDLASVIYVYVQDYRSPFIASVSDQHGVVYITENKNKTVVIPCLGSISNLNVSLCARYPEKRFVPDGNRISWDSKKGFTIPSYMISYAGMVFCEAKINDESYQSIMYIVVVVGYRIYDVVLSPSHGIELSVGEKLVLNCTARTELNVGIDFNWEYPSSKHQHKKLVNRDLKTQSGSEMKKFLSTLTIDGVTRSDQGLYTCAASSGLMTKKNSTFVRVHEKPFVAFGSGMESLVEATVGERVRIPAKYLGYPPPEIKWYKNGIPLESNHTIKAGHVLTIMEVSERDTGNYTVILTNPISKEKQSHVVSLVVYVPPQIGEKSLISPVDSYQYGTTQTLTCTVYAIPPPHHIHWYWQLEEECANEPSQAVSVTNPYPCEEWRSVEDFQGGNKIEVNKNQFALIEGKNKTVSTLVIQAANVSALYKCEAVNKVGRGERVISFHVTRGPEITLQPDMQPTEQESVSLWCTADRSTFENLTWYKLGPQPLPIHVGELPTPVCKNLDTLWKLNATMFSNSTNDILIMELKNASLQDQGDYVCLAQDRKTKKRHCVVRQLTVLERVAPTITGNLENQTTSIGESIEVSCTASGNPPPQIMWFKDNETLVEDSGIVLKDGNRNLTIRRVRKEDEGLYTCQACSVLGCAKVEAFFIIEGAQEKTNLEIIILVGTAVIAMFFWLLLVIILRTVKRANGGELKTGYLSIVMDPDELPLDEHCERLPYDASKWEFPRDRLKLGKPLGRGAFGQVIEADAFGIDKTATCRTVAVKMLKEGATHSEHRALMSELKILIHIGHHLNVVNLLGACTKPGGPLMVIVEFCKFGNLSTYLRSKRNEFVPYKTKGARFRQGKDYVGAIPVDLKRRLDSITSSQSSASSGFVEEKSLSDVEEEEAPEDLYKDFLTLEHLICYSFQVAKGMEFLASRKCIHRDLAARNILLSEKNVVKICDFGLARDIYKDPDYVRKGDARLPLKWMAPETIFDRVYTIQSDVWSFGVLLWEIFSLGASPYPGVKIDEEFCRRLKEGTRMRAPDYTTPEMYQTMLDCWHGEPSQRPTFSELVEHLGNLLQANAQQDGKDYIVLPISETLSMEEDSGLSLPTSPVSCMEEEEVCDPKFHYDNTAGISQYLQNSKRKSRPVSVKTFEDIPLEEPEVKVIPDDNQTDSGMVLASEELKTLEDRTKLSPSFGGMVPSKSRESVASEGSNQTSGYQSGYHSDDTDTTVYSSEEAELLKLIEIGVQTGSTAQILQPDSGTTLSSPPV
Chain of VEGFR1 (P17948 27-1338, species assumed): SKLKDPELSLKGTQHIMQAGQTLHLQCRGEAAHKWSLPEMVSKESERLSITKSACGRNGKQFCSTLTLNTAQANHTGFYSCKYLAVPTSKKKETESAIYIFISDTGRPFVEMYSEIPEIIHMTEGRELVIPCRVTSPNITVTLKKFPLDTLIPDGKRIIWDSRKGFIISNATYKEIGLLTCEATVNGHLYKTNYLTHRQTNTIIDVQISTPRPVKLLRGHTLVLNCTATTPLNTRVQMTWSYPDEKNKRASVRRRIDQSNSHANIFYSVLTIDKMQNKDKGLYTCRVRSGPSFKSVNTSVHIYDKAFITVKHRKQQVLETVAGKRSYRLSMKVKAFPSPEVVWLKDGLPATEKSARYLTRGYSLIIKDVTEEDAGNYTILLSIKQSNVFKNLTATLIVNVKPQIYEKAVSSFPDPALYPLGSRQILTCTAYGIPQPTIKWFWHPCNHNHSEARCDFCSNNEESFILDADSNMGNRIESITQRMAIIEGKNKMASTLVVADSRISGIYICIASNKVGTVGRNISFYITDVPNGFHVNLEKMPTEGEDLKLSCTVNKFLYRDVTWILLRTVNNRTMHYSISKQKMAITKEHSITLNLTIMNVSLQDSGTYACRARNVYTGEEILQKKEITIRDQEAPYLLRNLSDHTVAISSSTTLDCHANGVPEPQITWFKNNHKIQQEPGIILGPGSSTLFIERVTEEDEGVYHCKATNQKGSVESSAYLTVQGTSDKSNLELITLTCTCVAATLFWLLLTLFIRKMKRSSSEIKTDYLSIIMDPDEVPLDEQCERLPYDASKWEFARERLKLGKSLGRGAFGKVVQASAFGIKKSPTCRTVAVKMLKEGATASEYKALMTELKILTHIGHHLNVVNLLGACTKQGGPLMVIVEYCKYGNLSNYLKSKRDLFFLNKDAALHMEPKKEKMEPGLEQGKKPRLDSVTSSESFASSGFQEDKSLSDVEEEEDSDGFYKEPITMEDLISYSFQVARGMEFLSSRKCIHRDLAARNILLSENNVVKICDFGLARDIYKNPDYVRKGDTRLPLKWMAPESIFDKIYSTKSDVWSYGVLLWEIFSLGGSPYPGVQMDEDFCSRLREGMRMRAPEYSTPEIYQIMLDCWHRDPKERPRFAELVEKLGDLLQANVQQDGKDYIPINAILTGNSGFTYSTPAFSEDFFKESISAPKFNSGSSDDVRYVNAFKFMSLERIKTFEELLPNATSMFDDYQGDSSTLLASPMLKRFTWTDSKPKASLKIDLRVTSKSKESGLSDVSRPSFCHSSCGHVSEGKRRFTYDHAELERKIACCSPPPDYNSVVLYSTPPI

Turning to `Cc1ccc(F)c(NC(=O)Nc2ccc(Oc3ccnc4cc(C(=O)O)sc34)cc2)c1` [Compound F2, 7-[4-({[(2-Fluoro-5-methylphenyl)amino]carbonyl}amino)phenoxy]thieno[3,2-b]pyridine-2-carboxylic acid], the “In Vivo Rabbit Eye VEGF Permeability” value in data set [1] is “efficacious”. Besides, the IC50 against VEGFR1 was 16 nM; at VEGFR2, 29 nM; in data set [2], 20 nM.

In the case of `COC(=O)CNCCCNC(=O)c1cc2nccc(Oc3ccc(NC(=O)Nc4cc(C)ccc4F)cc3)c2s1` [Example 18, methyl ({3-[({7-[4-({[(2-fluoro-5-methylphenyl)amino]carbonyl}amino)phenoxy]thieno[3,2-b]pyridin-2-yl}carbonyl)amino]propyl}amino)acetate], in data set [1], the “In Vivo Rabbit Eye VEGF Permeability” value is “Efficacious”. The IC50 against PDGFRβ was 11 nM; against VEGFR1, 6 nM; on VEGFR2, 0.8 nM; in data set [2], 3 nM.

Take `CCNC(=O)[C@H](CCC(=O)O)NC(=O)c1cc2nccc(Oc3ccc(NC(=O)Nc4cc(C)ccc4F)c(F)c3)c2s1` [Example 46, (4S)-5-(ethylamino)-4-[({7-[3-fluoro-4-({[(2-fluoro-5-methylphenyl)amino]carbonyl}amino)phenoxy]thieno[3,2-b]pyridin-2-yl}carbonyl)amino]-5-oxopentanoic acid]: the “In Vivo Rabbit Eye VEGF Permeability” value in data set [1] is on record as “Efficacious”. Also, the figures for the IC50 (at VEGFR2; in data set [2]) were 328 nM and 19 nM, respectively.

For `Cc1ccc(F)c(NC(=O)Nc2ccc(Oc3ccnc4cc(C(=O)NCCCN5CCOCC5)sc34)cc2F)c1` [Example 55, 7-[3-fluoro-4-({[(2-fluoro-5-methylphenyl)amino]carbonyl}amino)phenoxy]-N-(3-morpholin-4-ylpropyl)thieno[3,2-b]pyridine-2-carboxamide], the “In Vivo Rabbit Eye VEGF Permeability” value in data set [1] was “Efficacious”. The IC50 on VEGFR1 was 7 nM; on VEGFR2, 7 nM; in data set [2], 11 nM.

By IC50 is commonly meant the concentration that gives 50% inhibition.
